Source: the NIST ThermoML archive (doi:10.1016/j.jct.2015.04.006)
± gives the expanded uncertainty stated by the source.

Columns and labels:
[1] = mn = molality of the nth substance listed, in mol/kg; settings: 100 kPa, Liquid, m2 = 0; for speed of sound: Frequency=3 MHz, Sing-around technique in a fixed-path interferometer; for mass density: Vibrating tube method
[2] = 100 kPa, Liquid; for speed of sound: Frequency=3 MHz, Sing-around technique in a fixed-path interferometer; for mass density: Vibrating tube method

Compound | speed of sound ([1]; 298.15 K) | mass density ([1]; 298.15 K) | speed of sound ([1]; 303.15 K) | mass density ([1]; 303.15 K) | speed of sound ([1]; 308.15 K) | mass density ([1]; 308.15 K) | speed of sound ([1]; 313.15 K) | mass density ([1]; 313.15 K) | speed of sound ([1]; 318.15 K) | mass density ([1]; 318.15 K) | speed of sound ([2]; 298.15 K) | mass density ([2]; 298.15 K) | speed of sound ([2]; 303.15 K) | mass density ([2]; 303.15 K) | speed of sound ([2]; 308.15 K) | mass density ([2]; 308.15 K) | speed of sound ([2]; 313.15 K) | mass density ([2]; 313.15 K) | speed of sound ([2]; 318.15 K) | mass density ([2]; 318.15 K)
C[S+](C)[O-] [dimethyl sulfoxide] + CCCC[N+]1(C)CCOCC1.O=S(=O)([N-]S(=O)(=O)C(F)(F)F)C(F)(F)F | 1484.6 ± 1.2 m/s | 1095.28 ± 0.24 kg/m3 | 1467.7 ± 1.2 m/s | 1090.26 ± 0.24 kg/m3 | 1450.8 ± 1.2 m/s | 1085.24 ± 0.24 kg/m3 | 1434.1 ± 1.2 m/s | 1080.22 ± 0.24 kg/m3 | 1417.5 ± 1.2 m/s | 1075.21 ± 0.24 kg/m3 |  |  |  |  |  |  |  |  |  | 
C[S+](C)[O-] [dimethyl sulfoxide] + CCCCCCCC[N+]1(C)CCOCC1.O=S(=O)([N-]S(=O)(=O)C(F)(F)F)C(F)(F)F | 1484.6 ± 1.2 m/s | 1095.28 ± 0.21 kg/m3 | 1467.7 ± 1.2 m/s | 1090.26 ± 0.21 kg/m3 | 1450.8 ± 1.2 m/s | 1085.24 ± 0.21 kg/m3 | 1434.1 ± 1.2 m/s | 1080.22 ± 0.21 kg/m3 | 1417.5 ± 1.2 m/s | 1075.21 ± 0.21 kg/m3 |  |  |  |  |  |  |  |  |  | 
C[S+](C)[O-] [dimethyl sulfoxide] |  |  |  |  |  |  |  |  |  |  | 1484.6 ± 1.2 m/s | 1095.28 ± 0.21 kg/m3 | 1467.7 ± 1.2 m/s | 1090.26 ± 0.26 kg/m3 | 1450.8 ± 1.2 m/s | 1085.24 ± 0.24 kg/m3 | 1434.1 ± 1.2 m/s | 1080.22 ± 0.24 kg/m3 | 1417.5 ± 1.2 m/s | 1075.21 ± 0.26 kg/m3
C[S+](C)[O-] [dimethyl sulfoxide] + CC[N+]1(C)CCOCC1.O=S(=O)([N-]S(=O)(=O)C(F)(F)F)C(F)(F)F | 1484.6 ± 1.2 m/s | 1095.28 ± 0.26 kg/m3 | 1467.7 ± 1.2 m/s | 1090.26 ± 0.26 kg/m3 | 1450.8 ± 1.2 m/s | 1085.24 ± 0.26 kg/m3 | 1434.1 ± 1.2 m/s | 1080.22 ± 0.26 kg/m3 | 1417.5 ± 1.2 m/s | 1075.21 ± 0.26 kg/m3 |  |  |  |  |  |  |  |  |  | 
